Data on 4 compounds can be found in PMC6319706 (PLoS ONE, 2019).

Assay [1] deals with T1, mouse adult α1β1εδ nAChR (Mus musculus, UniProt P02716+P04756+P09690+P20782). Format: cell-based.
For assay [2], the target named is T1, mouse adult α1β1εδ nAChR. The assay is described as follows: cell-based. Type of assay: cell-based.
Another assay concerns the target human α7 nAChR (Homo sapiens, UniProt P36544). The assay is described as follows: cell-based.
The target in assay [3] is T2, mouse 5-HT3AR (Mus musculus, UniProt P23979). The assay is described as follows: cell-based. Type of assay: cell-based.
The next assay addresses mouse α3β2γ2 GABAAR (Mus musculus, UniProt P22723+P26049+P63137). In words: cell-based. Conditions: for inhibition at 100 µM: read-out: inhibition of GABA-evoked currents.
The target in the next assay is α1β3γ2 GABAAR (Mus musculus, UniProt P62812+P63080). Type of assay: binding.
Assay [4] has as its target T2, mouse 5-HT3AR. To be noted: cited from earlier work.
Another assay concerns human 5-HT3AR. Conditions: cited from earlier work.
The next assay relates to GABAAR. Conditions: cited from earlier work.
Assay [5] relates to end-plate muscle type nAChRs. Conditions: cited from earlier work.

Where two headings read alike, the source gives them in different places.

For the compound “α-bungarotoxin [αBgt, reference compound]”, the “effect on maximal acetylcholine response (in words)” value (“effect” below) on mouse adult α1β1εδ nAChR [1] is on record as “did not observe any reduction in the maximal amplitude”.

As for `COc1cc2c3cc1Oc1cc(ccc1O)C[C@@H]1c4c(cc(OC)c(O)c4Oc4ccc(cc4)C[C@@H]3N(C)CC2)CC[N+]1(C)C` [d-TC, d-tubocurarine, reference compound], the 50% inhibitory concentration (IC50) (as a rule, the concentration that inhibits the measured activity by half) was 810 nM against mouse adult α1β1εδ nAChR [2]; 2030 nM against human α7 nAChR; 22.6 nM against mouse 5-HT3AR [3]; 11.4 to 13 nM on mouse 5-HT3AR [4]; 1800 nM in the assay on human 5-HT3AR. Further, the figures for the “nH (Hill slope)” value on mouse adult α1β1εδ nAChR [2], on human α7 nAChR and at mouse 5-HT3AR [3] were -1.87 ± 0.41, -1.39 ± 0.21 and -1.19 ± 0.21, respectively. At mouse adult α1β1εδ nAChR [1], the “effect” value is given as “reduces the maximal acetylcholine response”. For the same compound, the “inhibition of GABA-evoked currents” value against mouse α3β2γ2 GABAAR is on record as “almost completely inhibited”. Moreover, the inhibition (usually the change of the read-out against control, counted positive when it falls) at 100 µM on mouse α3β2γ2 GABAAR turned out to be 90%. Also, the “competition with Alexa Fluor 546 αCtx binding (in words)” value (from here on “competition”) on α1β3γ2 GABAAR is on record as “comparable affinities”. The “inhibition of GABAAR (in words)” value in the assay with GABAAR is recorded as “inhibits GABAAR”. Moreover, the “fold higher affinity of orthosteric α/ε (or α/γ) site than orthosteric α/δ site” value in assay [5] is listed as 100 fold.

Turning to `COc1cc2c(cc1O)[C@@H](Cc1ccc(O)c(Oc3cc4c(cc3OC)CCN[C@H]4Cc3ccc(O)cc3)c1)NCC2` [BBIQA1], at mouse adult α1β1εδ nAChR [2], the half-inhibitory concentration (IC50) turned out to be 750 nM and the “nH (Hill slope)” value is listed as -0.96 ± 0.16. On human α7 nAChR, the concentration for half-maximal inhibition (IC50) came to 1700 nM and the “nH (Hill slope)” value is on record as -0.83 ± 0.17. Besides, on mouse 5-HT3AR [3], half-maximal inhibition (IC50) required 119 nM, the “fold less active than d-TC” value was 5 fold and the “nH (Hill slope)” value is listed as -1.06 ± 0.09. Besides, on mouse adult α1β1εδ nAChR [1], the “effect” value is reported as “reduces the maximal acetylcholine response”. For the same compound, the inhibition at 100 µM at mouse α3β2γ2 GABAAR is 40 to 50%. Besides, the “competition” value at α1β3γ2 GABAAR was “comparable affinities”.

Take `COc1ccc2cc1Oc1cc3c(cc1O)CCN[C@H]3Cc1ccc(cc1)Oc1c(O)c(OC)cc3c1[C@@H](C2)[N+](C)(C)CC3` [BBIQA2]: on mouse adult α1β1εδ nAChR [2], the concentration for half-maximal inhibition (IC50) is 1750 nM; the “fold less potent than BBIQA1 and d-TC” value is ~ 2 fold; the “nH (Hill slope)” value is -1.04 ± 0.21. Further, on human α7 nAChR, the concentration for half-maximal inhibition (IC50) was found to be 3080 nM and the “nH (Hill slope)” value was -0.94 ± 0.29. Also, on mouse 5-HT3AR [3], the concentration for half-maximal inhibition (IC50) was determined as 1970 nM, the “fold less active than d-TC” value was 87 fold and the “nH (Hill slope)” value was -1.83 ± 0.01. In addition, on mouse adult α1β1εδ nAChR [1], the “effect” value is “reduces the maximal acetylcholine response”. The inhibition at 100 µM on mouse α3β2γ2 GABAAR is 40 to 50%. Further, the “competition” value on α1β3γ2 GABAAR is on record as “comparable affinities”.
